In series [1] the target is peripheral benzodiazepine receptor ("PBR") (Homo sapiens, UniProt P30536). To be noted: cited from earlier work.
In series [2] the test system is central benzodiazepine receptor. The conditions noted are these: cited from earlier work.
In series [3] the target is mitochondrial F1Fo-ATPase. To be noted: cited from earlier work.
Series [4] is described as follows: Simulated gastric fluid solubility at 37° C. The format is physicochemical. To be noted: versus solvated Bz-423.
For series [5], the target named is T1, mitochondrial F0F1 ATPase (Homo sapiens, UniProt P48047). The series can be described thus: ATP hydrolysis. The series is classed as biochemical. To be noted: compared with solvated Bz-423 (FIG. 11).
Series [6] concerns the target T1, mitochondrial F0F1 ATPase. The series can be described thus: ATP synthesis. The series is classed as biochemical. The conditions noted are these: compared with solvated Bz-423 (FIG. 12).
For another series, the system named is cells. The series can be described thus: Cell viability. The format is cell-based. The conditions noted are these: compared with solvated Bz-423 (FIG. 13).
Series [7] can be described thus: Water solubility at 37° C. The conditions noted are these: versus solvated Bz-423.
Another series concerns rodents. The conditions noted are these: two daily doses; cited from earlier work.

Molecules are shown by their SMILES.

In general, Kd refers to the constant that tells how readily two partners part at equilibrium. The Ki is a measure of affinity in units of concentration, obtained from inhibition or displacement. The term IC50 denotes the concentration that inhibits the measured activity by half. Broadly, the LD50 is the dose expected to kill half of the subjects tested.

Sequence of peripheral benzodiazepine receptor ("PBR") (P30536 whole entry, species assumed): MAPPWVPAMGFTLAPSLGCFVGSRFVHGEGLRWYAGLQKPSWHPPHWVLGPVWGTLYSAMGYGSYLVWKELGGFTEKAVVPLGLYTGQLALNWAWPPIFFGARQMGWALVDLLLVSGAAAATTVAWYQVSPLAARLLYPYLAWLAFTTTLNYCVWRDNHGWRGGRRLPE

`CN1C(=O)C(Cc2ccc3ccccc3c2)N=C(c2ccc(O)cc2)c2cc(Cl)ccc21` (stereo not shown) [Bz-423]: in series [1], the equilibrium dissociation constant (Kd) was about 1000 nM. In addition, the “binding to the central benzodiazepine receptor” value in series [2] is “prevents binding to the central benzodiazepine receptor”. In addition, the Ki in series [3] is about 9 µM.
On to `CN1C(=O)C(Cc2ccc3ccccc3c2)N=C(c2ccc(O)cc2)c2cc(Cl)ccc21` (stereo not shown) [anhydrous BZ-423 ball milled], for which, in series [4], the “solubility in simulated gastric fluid, comparison in words” value is recorded as “more soluble than solvated Bz-423”. The ATP hydrolysis entry in series [5] is “capable of inhibiting ATP hydrolysis”. Further, the ATP synthesis entry in series [6] is “not inhibiting cell synthesis”. Also, the cell viability result with cells was “not affecting cell viability”. The “water solubility, comparison in words” value in series [7] is “more soluble than solvated Bz-423”.
On to `CC[C@H]1/C=C/C=C/C[C@@H](C)[C@H](O)[C@@](C)(O)C(=O)[C@@H](C)[C@H](O)[C@@H](C)C(=O)[C@@H](C)[C@H](O)[C@@H](C)/C=C/C(=O)O[C@@H]2[C@H](C)[C@H](CC1)O[C@]1(CC[C@H](C)[C@H](C[C@@H](C)O)O1)[C@H]2C` [oligomycin, reference compound], for which the IC50 in series [3] is 10 nM. Also, in the series on rodents, the median lethal dose (LD50) is 0.5 mg/kg.

The values above are taken from US7994313B2 (priority 2005, dated 2011).
